According to US20220273748A1, “PLANT FERMENT AND WEIGHT LOSS METHOD FOR USING THE SAME” (TCI CO., LTD., priority 2021, published 2022):
Read-outs that look alike come from different tables or passages of the source.

Experiments:
PYY gene = assay: Expression level of PYY gene in NCI-H716 cells (qRT-PCR); format: cell-based; settings: Homo sapiens, read-out: expression level of the PYY gene relative to the blank group
Procedure: Herein, the expression level of the gene (Gene ID: 5697) of the peptide tyrosine-tyrosine (PPY) protein in human colorectal adenocarcinoma NCI-H716 cells (purchased from the Bioresource Collection and Research Center (BCRC), number 60517; hereinafter referred to as NCI-H716 cells) treated with each of the compounds TCI-LTF-01, TCI-LTF-02, TCI-LTF-04, TCI-LTF-08, TCI-LTF-09, TCI-LTF-10, TCI-LTF-11, TCI-LTF-12, and TCI-LTF-14 that were identified in Example 7 was determined by using the RNA extraction kit, SuperScript® III Reverse Transcriptase, KAPA SYBR®FAST qPCR reagent kit, and quantitative PCR machine.
A cell culture medium used is a solution containing 20% of fetal bovine serum (FBS, purchased from Gibco, number 10438-026, US), 1% of antibiotic-antimycotic (purchased from Gibco, number 15240-062), 10 mM of HEPES buffer (purchased from Gibco, number 15630080), and 1 mM of sodium pyruvate (purchased from Gibco, number 11360070). The compounds TCI-LTF-01, TCI-LTF-02, TCI-LTF-04, TCI-LTF-08, TCI-LTF-09, TCI-LTF-10, TCI-LTF-11, TCI-LTF-12, and TCI-LTF-14 each was formulated into 100 mM of stock sample with the DMSO solvent.
First, the NCI-H716 cells were inoculated into a 6-well culture plate containing 2 mL of culture medium in a density of 1×10^5 cells per well, and cultured at 37° C. for 24 h. Next, the NCI-H716 cells were divided into a blank group and 9 experimental groups. Then, the cell culture medium in each group was replaced with 2 mL of experimental culture medium per well, and then cultured at 37° C. for 12 h. The experimental culture medium in the blank group was a cell culture medium with no treatment (that is, no additional compounds were added into the cell culture medium). The experimental culture medium in each of the 9 experimental groups was a cell culture medium containing […] of corresponding compound identified in Example 7, and the 9 compounds were: syringin (TCI-LTF-01), 1,5-di-o-caffroylquinic acid (TCI-LTF-02), luteolin (TCI-LTF-04), chlorogenic acid (TCI-LTF-08), dihydrocaffeic acid (TCI-LTF-09), caffeic acid (TCI-LTF-10), 4-hyderoxy-3-phenlylactic acid methyl ester (TCI-LTF-11), calceolarioside B (TCI-LTF-12), and 4-hydroxyphenolic acid (TCI-LTF-14). Herein, each of the 9 compounds was first formulated into 100 mM of stock sample with the DMSO solvent, and then added into the cell culture medium to give a final concentration of 100 μM in the cell culture medium. Each group was repeated for three times.
The cell membranes of the NCI-H716 cells treated in each group were broken with a cell lysis buffer to form a cell solution. Next, RNA of the 10 groups of cell solutions was extracted separately by using an RNA extraction reagent kit (purchased from Geneaid, Taiwan, Lot No. FC24015-G). Then, 1000 ng of the extracted RNA in each group was used as a template, and the extracted RNA was reverse transcribed into corresponding cDNA by the SuperScript® III reverse transcriptase (purchased from Invitrogene, USA, number 18080-051). Subsequently, the quantitative real-time reverse transcription polymerase chain reaction was carried out on the 10 groups of cDNA with the primers (SEQ ID NO: 15 to SEQ ID NO: 16) in Table 4 by using the ABI StepOnePlus™ Real-Time PCR system (Thermo Fisher Scientific, USA) and the KAPA SYBR FAST (purchased from Sigma, USA, number 38220000000) to observe the expression level of the PPY gene in the NCI-H716 cells in the 10 groups. The instrument setting conditions for the quantitative real-time reverse transcription polymerase chain reaction were 95° C. for 20 s, 95° C. for 3 s, 60° C. for 30 s, a total of 40 cycles, and gene quantification was carried out by the 2^−ΔCt method (using the m-ACTB gene as an internal reference gene). Herein, the quantitative real-time reverse transcription polymerase chain reaction with cDNA can indirectly quantify the expression level of the PYY protein encoded by the PPY gene. […]

[1] = tested on: OP9 cells differentiated into fat cells; assay: Inhibition of lipid droplet accumulation in fat cells differentiated from OP9 cells (glycerol cell-based assay), isolated compounds; parameters: species or system mouse; settings: final concentration 100 μM, 7 days, blank group = 100%
From the text: Herein, the content of glycerol in fat cells is used as a quantitative indicator to observe whether there is lipolysis.
A cell culture medium used is the α-minimum essential medium (α-MEM, Gibco, number 12000-022) containing 20% of fetal bovine serum (FBS. Gibco, number 10438-026) and 1% of antibiotic-antimycotic (Gibco, number 15240-062).
First, 8×10^4 OP9 cells (purchased from the American Type Culture Collection, ATCC®, number ATCC CRL-2749) were inoculated into a 24-well culture plate containing 500 μL of cell culture medium per well, and cultured at 37° C. for 7 days. During the 7-day cell culture, the cell culture medium was changed every 3 days. After the 7 days of culture, the formation of lipid droplets in the OP9 cells was observed by using a microscope (ZEISS; magnification 400×) to confirm that the OP9 cells were fully differentiated into fat cells for subsequent experiments.
Then, the differentiated fat cells were divided into a blank group and 5 experimental groups. The cell culture medium in each group was replaced with 500 μL of experimental medium per well, and then cultured at 37° C. for 7 days. During the 7-day culture, the experimental medium was replaced with a fresh 500 μL one every 3 days. The experimental culture medium in the blank group was just a cell culture medium (without other compounds), while the experimental culture medium in each of the 5 experimental group was a cell culture medium containing […] of corresponding compound identified in Example 7, and the 5 compounds were: syringin (TCI-LTF-01), 1,5-di-o-caffroylquinic acid (TCI-LTF-02), quercetin-3-glucuronide (TCI-LTF-03), gallic acid (TCI-LTF-06), and chlorogenic acid (TCI-LTF-08). […]
The content of glycerol was determined by using a glycerol cell-based assay kit (purchased from Cayman, USA, product number 10011725) according to the following steps. The experimental culture medium (that is, the experimental culture medium in which fat cells had been cultured, without the fat cells) in each group was collected, 25 μL of the experimental culture medium was transferred into a new 96-well culture plate, 100 μL of reconstituted free glycerol assay reagent was added into each well to react at room temperature for 15 min, and the absorbance OD540 nm of each group was read from the 96-well culture plate by an ELISA reader, to quantify the content of glycerol released into the experimental culture medium through lipolysis, as shown in FIG. 31. […] The obtained results were analyzed by student t-test using Excel software to determine whether there is a statistically significant difference between two sample groups. […]

[2] = NCI-H716 cells, final concentration 100 μM, 12 h, blank group = 1.0

Structure (SMILES)	fold induction at 100 µM (PYY gene; NCI-H716, 12 h)	lipid droplet content [1] [%]	fold induction at 100 µM (PYY gene; [2])
COc1cc(/C=C/CO)cc(OC)c1O[C@@H]1O[C@H](CO)[C@@H](O)[C@H](O)[C@H]1O [TCI-LTF-01, Syringin]	6.2	64.8	–
O=C(/C=C/c1ccc(O)c(O)c1)O[C@@H]1C[C@](OC(=O)/C=C/c2ccc(O)c(O)c2)(C(=O)O)C[C@@H](O)[C@H]1O [TCI-LTF-02, 1,5-Di-O-caffroylquinic acid]	–	75.2	2.3
O=c1cc(-c2ccc(O)c(O)c2)oc2cc(O)cc(O)c12 [TCI-LTF-04, Luteolin]	–	–	3.6
O=C(O)c1cc(O)c(O)c(O)c1 [TCI-LTF-06, Gallic acid]	–	72.4	–
O=C(/C=C/c1ccc(O)c(O)c1)O[C@@H]1C[C@](O)(C(=O)O)C[C@@H](O)[C@H]1O [TCI-LTF-08, Chlorogenic acid]	–	69.3	5.3
O=C(O)CCc1ccc(O)c(O)c1 [TCI-LTF-09, Dihydrocaffeic acid]	–	–	4.9
O=C(O)/C=C/c1ccc(O)c(O)c1 [TCI-LTF-10, Caffeic acid]	–	–	3.5
COC(=O)C(O)Cc1ccc(O)cc1 (stereo not shown) [TCI-LTF-11, 4-Hyderoxy-3-phenlylactic acid methyl ester]	–	–	4.5
O=C(/C=C/c1ccc(O)c(O)c1)OC[C@H]1O[C@@H](OCCc2ccc(O)c(O)c2)[C@H](O)[C@@H](O)[C@@H]1O [TCI-LTF-12, Calceolarioside B]	–	–	5.6
O=C(O)c1ccc(O)cc1 [TCI-LTF-14, 4-Hydroxyphenolic acid]	–	–	3.6
